Measurements reported in patent US8067413B2, “9-substituted-8-oxo-adenine compounds as toll-like receptor (TLR7 ) modulators” (AstraZeneca AB, priority 2007, dated 2011).

Biological target: T1, Recombinant human TLR7 (Homo sapiens, UniProt Q9NYK1)
T1 construct: expressed in transfected cells; host or cells: HEK293 cell line stably expressing the pNiFty2-SEAP reporter plasmid; TLR7 in pUNO vector
T1 sequence (Q9NYK1 27-1049): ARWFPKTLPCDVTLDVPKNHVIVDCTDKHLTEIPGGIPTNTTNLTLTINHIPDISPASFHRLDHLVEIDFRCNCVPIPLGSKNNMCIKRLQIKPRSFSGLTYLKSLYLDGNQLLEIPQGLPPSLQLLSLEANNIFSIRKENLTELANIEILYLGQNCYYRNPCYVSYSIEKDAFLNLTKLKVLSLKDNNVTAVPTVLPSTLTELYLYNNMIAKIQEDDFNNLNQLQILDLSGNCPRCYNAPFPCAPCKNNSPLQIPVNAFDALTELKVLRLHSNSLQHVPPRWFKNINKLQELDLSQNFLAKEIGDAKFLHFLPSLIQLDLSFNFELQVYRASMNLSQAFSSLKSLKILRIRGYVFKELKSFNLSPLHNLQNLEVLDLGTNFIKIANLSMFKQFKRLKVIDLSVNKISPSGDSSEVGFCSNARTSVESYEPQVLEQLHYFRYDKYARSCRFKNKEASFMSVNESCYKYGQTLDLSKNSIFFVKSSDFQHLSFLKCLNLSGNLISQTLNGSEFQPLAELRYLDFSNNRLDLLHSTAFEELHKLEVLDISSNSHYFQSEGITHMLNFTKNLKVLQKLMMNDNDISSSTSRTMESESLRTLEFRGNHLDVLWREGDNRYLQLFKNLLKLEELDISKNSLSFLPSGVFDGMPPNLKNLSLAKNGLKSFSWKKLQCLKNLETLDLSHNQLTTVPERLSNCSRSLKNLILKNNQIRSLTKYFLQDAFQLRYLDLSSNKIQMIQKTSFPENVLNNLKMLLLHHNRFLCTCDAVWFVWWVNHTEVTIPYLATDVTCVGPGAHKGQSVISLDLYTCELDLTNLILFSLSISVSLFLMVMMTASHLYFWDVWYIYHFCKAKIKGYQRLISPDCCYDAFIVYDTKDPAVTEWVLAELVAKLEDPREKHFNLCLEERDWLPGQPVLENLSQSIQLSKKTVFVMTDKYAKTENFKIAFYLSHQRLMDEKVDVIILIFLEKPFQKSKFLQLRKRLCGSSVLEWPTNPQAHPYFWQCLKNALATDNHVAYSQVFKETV
Assay: Human TLR7 Assay (SEAP reporter in HEK293 cells)
Format: cell-based
Settings: HEK293 cell line stably expressing human TLR7 and pNiFty2-SEAP reporter; SEAP induction after overnight incubation at 37° C., 0.1% (v/v) DMSO
Source text: Recombinant human TLR7 was stably expressed in a HEK293 cell line already stably expressing the pNiFty2-SEAP reporter plasmid; integration of the reporter gene was maintained by selection with the antibiotic zeocin. The most common variant sequence of human TLR7 (represented by the EMBL sequence AF240467) was cloned into the mammalian cell expression vector pUNO and transfected into this reporter cell-line. Transfectants with stable expression were selected using the antibiotic blasticidin. In this reporter cell-line, expression of secreted alkaline phosphatase (SEAP) is controlled by an NFkB/ELAM-1 composite promoter comprising five NFkB sites combined with the proximal ELAM-1 promoter. TLR signaling leads to the translocation of NFkB and to activation of the promoter results in expression of the SEAP gene. TLR7-specific activation was assessed by determining the level of SEAP produced following overnight incubation of the cells at 37° C. with the standard compound in the presence of 0.1% (v/v) dimethylsulfoxide (DMSO). Concentration dependent induction of SEAP production by compounds was expressed as the concentration of compound which produced half of the maximal level of SEAP induction for that compound (pEC50)

Row | SMILES | EC50
1 | CCCCOc1nc(N)c2[nH]c(=O)n(CCCN3CCCC3)c2n1 [Example 1, 6-Amino-2-butoxy-9-(3-pyrrolidin-1-ylpropyl)-7,9-dihydro-8H-purin-8-one] | 398 nM
2 | CCCCOc1nc(N)c2[nH]c(=O)n(CCCN3CCC[C@H]3C(=O)N(C)C)c2n1 [Example 2, 1-[3-(6-Amino-2-butoxy-8-oxo-7,8-dihydro-9H-purin-9-yl)propyl]-N,N-dimethyl-L-prolinamide] | 3160 nM
3 | CCCCOc1nc(N)c2[nH]c(=O)n(CCCN3CCC[C@H]3COC)c2n1 [Example 3, 6-Amino-2-butoxy-9-{3-[(25)-2-(methoxymethyl)pyrrolidin-1-yl]propyl}-7,9-dihydro-8H-purin-8-one] | 2510 nM
4 | CCCCOc1nc(N)c2[nH]c(=O)n(CCCN(C)CC(=O)N(C)C)c2n1 [Example 4, N^2-[3-(6-Amino-2-butoxy-8-oxo-7,8-dihydro-9H-purin-9-yl)propyl]-N^1,N^1,N^2-trimethylglycinamide] | 251 nM
